A melting point compilation (Tetko et al.; mined from patent text by program, amines drawn as free bases though some values may be those of a salt)

Row | Structure (SMILES) | melting point
1 | COC(=O)Nc1cc(C)on1 | 136 to 137 °C
2 | O=C(O)C1CCC(c2ccc(Cl)cc2)n2c(=O)n(CCS)c(=O)n21 (configuration not stated) | 189 to 190 °C
3 | CCCN(Cc1ccc(-c2ccccc2-c2nc(=O)o[nH]2)cc1)c1nc(C)ncc1C(=O)OCC | 176 to 177 °C
4 | Cc1cc(-c2c(-c3ccc(OCC(F)(F)F)c(C(F)(F)F)c3)nc3cncn3c2C(F)(F)F)ccn1 | 219 °C
5 | CCN(CC)C(C)COc1ccccc1C(=O)O (configuration not stated) | 137 to 140 °C
6 | Cc1ccc(CC(CC(=O)N2CC3CCCCC3C2)C(=O)O)cc1 (configuration not stated) | 133 to 134 °C
7 | C=CCOC(=O)c1ccc(-c2ccc3cc(OCCCCC(=O)OCC)c(C45CC6CC(CC(C6)C4)C5)cc3c2)cc1 | 117 to 118 °C
8 | CCCCC(N)S(=O)(=O)O (configuration not stated) | 142 °C
9 | CCOC(=O)CCc1cc(Cl)c(Cl)cc1C(=O)CCCNC(C)=O | 63 to 65 °C
10 | O=[N+]([O-])c1ccccc1Nc1ccc(I)cc1 | 171 to 172 °C
11 | COc1cc2c(cc1O)CCN(Cc1cc(OC)c(OC)c(OC)c1)C2 | 170 to 171 °C
12 | Cc1ccc(N2CN(C)CNC2=S)c(C)c1 | 140 to 143 °C
13 | CCOC(=O)c1ncc2[nH]c3cccc(COC)c3c2c1C | 133 to 135 °C
14 | CC(=O)NC1C(Oc2ncn(Cc3ccc([N+](=O)[O-])cc3)c2C(N)=O)OC(COC(C)=O)C(OC(C)=O)C1OC(C)=O (configuration not stated) | 114 to 117 °C
15 | CC(C)[Si](Oc1ccc([C@@H](O)[C@@H](C)N2CCC(O)(c3ccccc3)CC2)cc1F)(C(C)C)C(C)C (relative stereo) | 140 to 141 °C
16 | CN(C)CCNC(=O)c1cccc(-c2nnc(CSCCOc3ccccc3)o2)c1 | 64 °C
17 | Cn1c2ccccc2c(=O)c2c([N+](=O)[O-])cccc21 | 308 to 309 °C
18 | CCSC(=S)N1Cc2[nH]c3ccccc3c2CC1CO (configuration not stated) | 74 to 76 °C
19 | CCC=CCn1c(=O)sc2c(=O)[nH]c(N)nc21 | 240 to 243 °C
20 | COC(=O)c1c(C(F)(F)C(F)(F)F)[nH]c(C(F)(F)C(F)(F)F)c1C(=O)OC | 68 to 71 °C
21 | CCNc1nc(NCC)nc(-c2ccc(-c3ccccc3)cc2)n1 | 183 to 184 °C
22 | Nc1nc(-c2ccc([N+](=O)[O-])cc2)c[nH]1 | 235 to 240 °C
23 | CCSc1cc(C)nc(SCC)c1NC(=O)CCCCCCSc1nc2c(C)c(Cl)cc(C(C)C)c2o1 | 117 to 120 °C
24 | CN(CCP(O)O)c1cc(Oc2ccc(C(F)(F)F)cc2Cl)ccc1[N+](=O)[O-] | 161 to 164 °C
25 | O=C(Oc1ccc(C(=O)c2ccc(Cl)cc2)cc1)Oc1ccc(C(=O)c2ccc(Cl)cc2)cc1 | 235 to 237 °C

Row | Structure (SMILES) | melting point
26 | COc1ccc(-c2cc(S(C)(=O)=O)nnc2-c2ccc(OC)cc2)cc1 | 137 to 140 °C
27 | CCOC(=O)N1CCc2nc3ccccc3c(O)c2CC1 | 252 °C
28 | Cc1csc(NC(=O)C2(CN3CCN(c4nc(C)cs4)C3=O)C=CC=CC2)n1 (configuration not stated) | 197 to 198 °C
29 | CN1CCN(C(=O)COc2cccc(CCNS(=O)(=O)c3ccc(Cl)cc3)c2)CC1 | 139 to 141 °C
30 | COC(=O)CCCc1cc2nc(Cl)ccc2n1S(=O)(=O)c1cc(Cl)ccc1Cl | 95 to 105 °C
31 | CC(C)(C)OC(=O)NC(CF)CC(=O)O (configuration not stated) | 112 °C
32 | Cn1cccc1C1=CC(=O)c2ccccc2C1=O | 95 to 96 °C
33 | O=C(O)Cc1coc2cc(OCc3cc(-c4ccc(Cl)cc4)on3)ccc12 | 193 to 194 °C
34 | CCn1c2ccc(C(=O)CC(C)=O)cc2c2cc(C(=O)c3ccc(F)cc3C)ccc21 | 132 °C
35 | COC(=O)c1ccc(CN(C2CCCCC2O)S(=O)(=O)c2ccc(Cl)cc2)c(F)c1F (configuration not stated) | 123 to 125 °C
36 | O=S1(=O)c2cccc3cccc(c23)N1CCN1CC=C(c2ccccc2)CC1 | 106 °C
37 | CC(C)(C)n1cnc2c1c1ccccc1n1nnnc21 | 224 to 226 °C
38 | C=C[C@@H](C[C@H](O)[C@H](CC1CCCCC1)NC(=O)[C@H](Cc1c[nH]cn1)NC(=O)[C@@H](CC(=O)NN)Cc1ccccc1)C(C)C | 109 °C
39 | Cc1c(C(=O)Nc2ccc(N3CCC(CCO)CC3)c(C#N)c2)cnn1-c1ccc(F)cc1 | 186 °C
40 | COc1ccc(F)c2c(O)c3cnccc3cc12 | > 210 °C
41 | C=CCc1ccc(CCNC(=O)c2cc(Cl)ccc2OC)cc1S(=O)(=O)NC(=O)NC | 124 to 126 °C
42 | CCCc1nc2c(C)ccnc2n1Cc1ccc(-c2ccncc2-c2nnn[nH]2)cc1 | 110 to 112 °C
43 | CCCCc1nc2c(N)nc3cc(-c4ccc(OCCC)cc4)ccc3c2n1CC(C)C | 194 to 197 °C
44 | CC(C)(O)CCOc1c(-c2ccc(S(C)(=O)=O)cc2)cnn(-c2ccc(F)c(Cl)c2)c1=O | 108 to 110 °C
45 | CCn1c(=N)c(-c2ccc3ccccc3c2)cc2cnc(Nc3ccccc3)nc21 | 236 to 242 °C
46 | Oc1ccc2c(c1)CCN(c1ccc(Cl)cc1)C2 | 122 to 123 °C
47 | COC(=O)CCc1cc2cc(Cl)ccc2n1S(=O)(=O)c1cccc(OC)c1 | 106 to 109 °C
48 | COc1cc2c(cc1OC)C(=CN1CCN(C(=O)C3CCCCO3)CC1)C(=O)N2 (configuration not stated) | 208 to 210 °C
49 | N#Cc1ncn(Cc2ccccc2)c1C#N | 123 to 125 °C
50 | CCCCc1nc2c(N)nc3cc(-c4ccc(OC)cc4OC)ccc3c2n1CC(C)C | 187 to 189 °C

Row | Structure (SMILES) | melting point
51 | C[C@@H](COC(F)(F)C(F)F)[C@](O)(Cn1cncn1)c1ccc(F)cc1F | 148 °C
52 | CCc1ncc(CCCOc2c(C)cc(-c3noc(C)n3)cc2C)s1 | 43 to 45 °C
53 | CC1CCCN1c1ccc(C#N)c2occc12 (configuration not stated) | 82 to 83 °C
54 | CC(C)(C)NC(=O)C1(O)CC(C)(C)NC(C)(C)C1 | 134 to 136 °C
55 | CCn1cc(C(=O)NCc2ccc(Cl)cc2)c(=O)c2cc(CCl)sc21 | 199 to 200 °C
56 | CS(=O)(=O)N1CCCCc2nc(-c3ccncc3)sc21 | 193 to 194 °C
57 | CCOC(=O)C1(c2ccccc2)CCN(c2ncccn2)CC1 | 119 to 120 °C
58 | COc1ccc2oc(CC3CCCCC3)c(CC#N)c2c1 | 73 °C
59 | Cc1nnc(-c2ccccc2)c2nc(OCc3ncnn3C)c(C3CCCC3)n12 | 137 °C
60 | CCNC(=O)c1cccc(C2(c3ccc(OC(F)(F)F)cc3)N=C(N)N3CCCN=C32)c1 (configuration not stated) | 129 to 136 °C
61 | Cc1cc(C2(c3ccc(OC(F)F)cc3)N=C(N)N(C)C2=O)ccc1F (configuration not stated) | 70 °C
62 | O=S(=O)(c1ccccc1)N1CCCC1c1ccc(Cl)cc1 (racemic) | 122 °C
63 | COc1cc(OC)c(-c2cc3ccccc3[nH]2)cc1C=CC(=O)c1ccc(S(=O)(=O)NC(C)=O)cc1 | 218 to 220 °C
64 | O=S(=O)(NCC1CCN(C[C@H]2COc3ccc(Cl)cc3O2)CC1)c1c(F)cccc1F | 122 to 124 °C
65 | COC(=O)CCC(NC(=O)CCCC#Cc1cnc2nc(NC(=O)C(C)(C)C)nc(O)c2c1)C(=O)OC (configuration not stated) | 159 to 160 °C
66 | O=C(O)Cc1ccc(SCCNC(=O)C2Cc3ccccc3N2S(=O)(=O)c2ccc(-c3ccccc3C(F)(F)F)cc2)c(Cl)c1 (configuration not stated) | 86 °C
67 | CCOC(=O)C1(C(=O)OCC)CCC2(CC1)NCCc1cc(O)c(O)cc12 | 180 to 181 °C
68 | CC(=O)Oc1cc(OC(C)=O)c2c(c1)Oc1ccccc1C2C#N (configuration not stated) | 160 to 161 °C
69 | O=C(OCC1OC(n2cc(F)c(=O)[nH]c2=O)C(O)C1OC(=O)c1ccccc1)c1ccccc1 (configuration not stated) | 93 to 97 °C
70 | CC(C)c1coc(=O)n1-c1cc(F)c(C#N)cc1F | 83 °C
71 | CC(C)N(C(=O)n1oc(=O)n(Cc2ccccc2)c1=O)c1ccc(F)cc1 | 95 to 96 °C
72 | Cc1cccc(NC(=O)NC(CC(=O)N(CC(=O)OC(C)(C)C)c2ccccc2)c2ccccc2)c1 (racemic) | 164 °C
73 | O=C(O)CCC(=O)c1ccc(F)c(Br)c1 | 108 to 110 °C
74 | C[C@H](N=Cc1ccc(OCc2cccc(F)c2)cc1)C(N)=O | 112 °C
75 | CCOC(=O)c1c(CC)nn(C)c1NC(=O)Cc1ccc(OC)cc1 | 112 to 113 °C

Row | Structure (SMILES) | melting point
76 | CCOC(=O)CN(C)C1CCCN(C(=O)c2ccc(NC(=O)c3ccccc3C)cc2)c2ccccc21 (configuration not stated) | 167 to 168 °C
77 | CCc1nn(C2CCCC2)c(N)c1C(N)=O | 167 to 168 °C
78 | CNC(=O)N(C)c1nnc(SCC(=O)OC(C)(C)C)s1 | 174 °C
79 | Cc1ccc(S(=O)(=O)OCC(=O)C(=NO)C(=O)OC(C)(C)C)cc1 | 106 to 108 °C
80 | CCCNC(=O)CCCc1ccc2c(c1)c(Cc1ccc(C(=O)OC)cc1OC)cn2CCC | 100 °C
81 | COCc1cc(O)nc2nc(N)ccc12 | > 290 °C
82 | N=C(NS(=O)(=O)c1ccc(Cl)cc1)C1CN(c2ccc(Cl)cc2)C(c2ccc(Cl)cc2Cl)=N1 (configuration not stated) | 165 to 166 °C
83 | CC(=O)N1c2ccc(-c3nnn[nH]3)cc2C(Nc2ccc(Cl)cc2)CC1C (configuration not stated) | 190 to 191 °C
84 | COC(=O)C1=Cc2cc(Br)cnc2N(CC(C)C)CCC1 | 79.5 to 80.5 °C
85 | Clc1nc2ccccc2cc1C=C1CCCC1 | 84 to 86 °C
86 | CC(=O)c1cc2cc(OCC(=O)O)c(Cl)c(Cl)c2s1 | 203 to 205 °C
87 | C=CCNC(=O)Nc1ccccc1CCc1cc(C(C)(C)C)c(O)c(C(C)(C)C)c1 | 169 to 172 °C
88 | N#CCc1c[nH]c2cnc(-n3cncn3)cc12 | 218 to 220 °C
89 | CCn1c(=O)n(O)c(=O)c2cc(F)c(F)cc21 | 172 to 174 °C
90 | NC(=O)c1c(C(=O)O)cnn1-c1ccc(Br)cc1 | 251 to 252 °C
91 | CC(=O)N1CCc2cc(S(=O)(=O)n3c(CCCC(=O)O)cc4nc(Cl)ccc43)ccc21 | 226 °C
92 | CCCC1CCC(C2CCC(OCCCO)CC2)CC1 (configuration not stated) | 110 to 111 °C
93 | COc1ccc2cccc(C(CNC(C)=O)COS(C)(=O)=O)c2c1 (configuration not stated) | 104 to 106 °C
94 | O=C(Nc1ccccc1)N1CCN=C1CSc1ccccc1 | 117 to 119 °C
95 | COc1ccc(-c2nnn(-c3ccc(C(F)(F)F)cc3Cl)c2N)cc1 | 130 to 131 °C
96 | CCC(CC)CNc1cccc(-c2ccnc3c(C(=O)c4cccs4)cnn23)c1 | 192 to 194 °C
97 | COC[C@H]1CN(c2coc3cc(C(=O)OC)ccc23)C(=O)O1 | 116 °C
